Data on one sequence can be found in publication PMC7144530 (The Journal of Experimental Medicine, 2020).

This test concerns CD8 T cells (CD4-depleted splenocytes). Briefly: IFN-gamma ELISpot of CD8 T cells from mice immunized with mutant SLP + adjuvant. As to conditions: long peptide ELISpot, immunized vs control; positivity needs effect size ≥2. The test is classed as in vivo, mouse.

Take “IYEFDYHLYGQNITMIMTSVSGHL [Mutation C-117]”: the “fold-change of IFN-gamma spot counts after vaccination” value is recorded as 1.94.
